Laboratory results reported in ChEMBL document CHEMBL4325866, “Discovery of a subnanomolar and selective spirocyclic agonist of the glucocorticoid receptor” (Eur J Med Chem, 2019).
pIC50: −log10 of the molar value.

Key:
[1] = tested on: Blood; experiment: Antiinflammatory activity in Sprague-Dawley rat whole blood assessed as inhibition of LPS-induced TNFalpha production measured after 18 hrs by AlphaLisa assay; format: functional, tissue-based
[2] = tested on: A549; experiment: Antiinflammatory activity in human A549 cells assessed as inhibition of IL1beta-induced IL6 production preincubated for 30 mins followed by IL1beta-stimulation and measured after 20 hrs by AlphaLisa assay; format: functional, cell-based
[3] = target: T1, Glucocorticoid receptor (Homo sapiens, UniProt P04150); experiment: Displacement of [3H]dexamethasone from GR in human IM9 cells after 6 hrs by scintillation counting method; format: cell-based
T1 sequence (P04150 whole entry): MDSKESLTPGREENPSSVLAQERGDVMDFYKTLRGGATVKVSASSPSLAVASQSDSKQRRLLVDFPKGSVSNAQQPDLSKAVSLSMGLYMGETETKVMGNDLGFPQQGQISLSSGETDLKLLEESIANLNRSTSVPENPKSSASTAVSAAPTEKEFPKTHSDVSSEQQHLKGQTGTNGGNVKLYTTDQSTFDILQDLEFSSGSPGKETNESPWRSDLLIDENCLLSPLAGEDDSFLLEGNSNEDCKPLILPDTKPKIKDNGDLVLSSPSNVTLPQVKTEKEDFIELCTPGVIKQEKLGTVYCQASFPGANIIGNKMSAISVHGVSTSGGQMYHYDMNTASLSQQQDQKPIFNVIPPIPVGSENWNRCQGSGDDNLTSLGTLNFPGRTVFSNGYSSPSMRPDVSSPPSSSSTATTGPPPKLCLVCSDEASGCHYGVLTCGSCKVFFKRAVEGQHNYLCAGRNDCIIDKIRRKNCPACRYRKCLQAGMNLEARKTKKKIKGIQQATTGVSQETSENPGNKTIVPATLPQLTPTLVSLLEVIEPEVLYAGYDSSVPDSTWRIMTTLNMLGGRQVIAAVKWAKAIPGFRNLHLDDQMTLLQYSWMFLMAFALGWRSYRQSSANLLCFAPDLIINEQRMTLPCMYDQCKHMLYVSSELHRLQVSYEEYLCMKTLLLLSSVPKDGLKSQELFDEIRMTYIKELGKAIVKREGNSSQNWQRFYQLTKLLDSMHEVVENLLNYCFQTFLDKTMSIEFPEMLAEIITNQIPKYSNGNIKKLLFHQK

[4] = target: T2, Progesterone receptor (Homo sapiens, UniProt P06401); experiment: Displacement of [3H]progesterone from progesterone receptor in human T47D cells after 20 hrs by scintillation counting method; format: cell-based
T2 sequence (P06401 whole entry): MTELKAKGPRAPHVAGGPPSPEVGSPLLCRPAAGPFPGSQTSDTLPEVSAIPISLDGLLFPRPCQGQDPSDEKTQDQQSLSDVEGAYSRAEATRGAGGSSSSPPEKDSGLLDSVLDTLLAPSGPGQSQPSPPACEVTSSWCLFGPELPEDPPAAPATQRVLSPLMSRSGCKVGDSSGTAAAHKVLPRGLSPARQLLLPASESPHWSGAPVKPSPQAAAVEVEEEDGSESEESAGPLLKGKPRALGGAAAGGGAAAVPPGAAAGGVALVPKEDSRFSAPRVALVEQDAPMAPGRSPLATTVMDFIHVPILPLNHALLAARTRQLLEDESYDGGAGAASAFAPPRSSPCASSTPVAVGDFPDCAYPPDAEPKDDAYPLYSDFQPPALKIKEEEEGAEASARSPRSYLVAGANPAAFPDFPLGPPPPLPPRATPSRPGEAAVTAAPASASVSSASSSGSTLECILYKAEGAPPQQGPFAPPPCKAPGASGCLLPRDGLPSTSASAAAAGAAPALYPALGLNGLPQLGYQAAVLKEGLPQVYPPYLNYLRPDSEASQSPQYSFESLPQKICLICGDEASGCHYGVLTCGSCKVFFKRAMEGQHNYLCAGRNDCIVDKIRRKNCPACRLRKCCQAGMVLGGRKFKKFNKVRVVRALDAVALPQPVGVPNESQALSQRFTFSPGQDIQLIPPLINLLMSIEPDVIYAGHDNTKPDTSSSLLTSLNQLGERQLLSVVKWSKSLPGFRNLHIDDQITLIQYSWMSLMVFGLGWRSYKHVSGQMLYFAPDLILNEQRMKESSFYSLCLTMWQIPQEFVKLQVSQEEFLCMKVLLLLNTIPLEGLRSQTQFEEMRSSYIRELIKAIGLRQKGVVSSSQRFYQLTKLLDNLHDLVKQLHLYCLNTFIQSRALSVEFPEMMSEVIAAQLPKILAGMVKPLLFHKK

[5] = target: T3, Glucocorticoid receptor (Homo sapiens) (UniProt P04150); experiment: Potency index, ratio of prednisolone IC50 to test compound IC50 for displacement of [3H]dexamethasone from GR in human IM9 cells; format: cell-based
T3 sequence (whole entry): T1 sequence (P04150 whole entry)

[6] = tested on: A549; experiment: Potency index, ratio of prednisolone IC50 to test compound IC50 for inhibition of IL1beta-induced IL6 production in human A549 cells; format: functional

Row | SMILES | pIC50 [3] | further results
1 | C[C@]12C=CC(=O)C=C1CC[C@@H]1[C@@H]2[C@@H](O)C[C@@]2(C)[C@H]1CC[C@]2(O)C(=O)CO [PREDNISOLONE] | – | pIC50 [1]: 8.34; pIC50 [2]: 8.24
2 | O[C@H]1C(Cc2ccccc2)(Cc2ccccc2)CCC[C@]12C=Cc1c(cnn1-c1ccc(F)cc1)C2 | < 6.00 | –
3 | O[C@@]1(Cc2ccccc2)CCCCC[C@@]12C=Cc1c(cnn1-c1ccc(F)cc1)C2 | 7.05 | –
4 | C#CC[C@H]1CCC[C@]2(C=Cc3c(cnn3-c3ccc(F)cc3)C2)[C@H]1O | < 6.00 | –
5 | O[C@H]1[C@@H](Cc2ccccc2)CCC[C@]12C=Cc1c(cnn1-c1ccc(F)cc1)C2 | < 6.00 | –
6 | COc1ccc(C2=CCCC[C@]23C=Cc2c(cnn2-c2ccc(F)cc2)C3)cc1 | 6.87 | –
7 | O[C@]1(c2ccccc2)CCCC[C@@]12C=Cc1c(cnn1-c1ccc(F)cc1)C2 | 5.99 | –
8 | O[C@@]1(c2ccccc2)CCC[C@]12C=Cc1c(cnn1-c1ccc(F)cc1)C2 | < 6.00 | –
9 | O[C@]1(Cc2ccccc2)CCCCC[C@@]12C=Cc1c(cnn1-c1ccc(F)cc1)C2 | 6.89 | –

More lines, main results first:

Row | pIC50 [3] | SMILES | further results
10 | 8.00 | Oc1ccc(C2=CCCC[C@]23C=Cc2c(cnn2-c2ccc(F)cc2)C3)cc1 | –
11 | 8.02 | O[C@]1(c2ccccc2)CCCCC[C@@]12C=Cc1c(cnn1-c1ccc(F)cc1)C2 | –
12 | 7.70 | Fc1ccc(-n2ncc3c2C=C[C@]2(CCCC=C2c2ccccc2)C3)cc1 | pIC50 [4]: < 6.00
13 | 9.39 | O[C@@]1(c2ccccc2)CCCC[C@@]12C=Cc1c(cnn1-c1ccc(F)cc1)C2 | pIC50 [1]: 8.40; Ratio IC50 [5]: 30; pIC50 [4]: 6.11; pIC50 [2]: 9.30; Ratio IC50 [6]: 10
14 | 8.22 | O[C@@]1(c2ccccc2)CCCCC[C@@]12C=Cc1c(cnn1-c1ccc(F)cc1)C2 | pIC50 [4]: < 6.00
